Laboratory results from US20060111423A1, “Use of diindolylmethane-related indoles and growth factor receptor inhibitors for the treatment of human cytomegalovirus-associated disease” (priority 2004, published 2006).

Key:
Towne strain HCMV = experiment: HCMV titer reduction assay in HEL fibroblasts; assay type: cell-based, Human Cytomegalovirus; details: HEL fibroblasts infected with HCMV, supernatant day 6 postinfection, plaque assay
Method: Cell culture studies are performed to establish activity of DIM-related indoles alone and in combination with GFR's as inhibitors of HCMV replication in an in vitro model relevant to human infection.
Cell culture and viral infection. Human embryonic lung (HEL) fibroblasts are cultured in Eagle's minimal essential media (EMEM) (Gibco, BRL) supplemented with 10% fetal bovine serum (FBS) plus antibiotics.
Towne strain HCMV (passages 36 to 40) is propagated in HEL fibroblasts as previously described (Kowalik et al., 1993, Proc. Natl. Acad. Sci. USA 90:1107-1111).
For infection, cells are grown to confluence and then are serum starved for 48 h in minimal essential media (MEM) plus antibiotics. Cells are infected with HCMV that had been purified through a sucrose cushion to eliminate cytokines and growth factor contamination. Seeding of cells using a multiplicity of infection of 2-5 PFU per cell is used.
At the indicated time after infection, cells are washed once and then are maintained in MEM plus antibiotics until they are harvested. Cells are pretreated for 1 h with the listed compound or combinations of compounds prior to infection. […]
Titer reduction assay. The levels of active virus during the culture period are determined using a Titer Reduction Assay. […] HCMV plaque numbers are scored under an inverted microscope.

[1] = tested on: TRAMP-C2 prostate cancer cells; assay type: in vivo; details: C57BL/6 mice, gavage once daily 5 days per week, 4 weeks
Method: METHODS: TRAMP-C2 cells, a mouse PC cell line are obtained from the American Type Culture Collection (Rockville, Md.). Six week old male C57BL/6 mice are purchased from Harlan Laboratories (Harlan, USA). TRAMP-C2 cells are suspended in media and aliquots are injected into the flank of male C57BL/6 mice using a 27 gauge needle. Two weeks after tumor transplantation when tumors appear, mice are divided in six groups treated as indicated:
Animals are dosed by gavage once daily, 5 days per week. Tumor volumes are measured weekly for 4 weeks following transplantation using calipers. Later, the tumors are removed, their final weights and volumes are measured. […] Tumor volumes in mm^2 are determined during the study using the formula π/6×larger diameter×(smaller diameter)^2. The data are expressed as the increase or decrease in tumor volume in mm^3. Histological studies are performed to assess the contribution of apotosis promotion in the reduction of tumor volume in treated groups.

Structure (SMILES)	viral titers (Towne strain HCMV)	tumor growth (tumor volumes compared to control group) [1]
c1ccc2c(Cc3c[nH]c4ccccc34)c[nH]c2c1 [Diindolylmethane, 3,3′-diindolylmethane]	significant decrease	inhibition of tumor growth
COc1cc2ncnc(Nc3ccc(F)c(Cl)c3)c2cc1OCCCN1CCOCC1 [Gefitinib, N-(3-chloro-4-fluorophenyl)-7-methoxy-6-(3-morpholinopropoxy)quinazolin-4-amine, reference compound]		inhibition of tumor growth
